Assay results from patent US20040116330A1, “Preventive/therapeutic method for cancer” (priority 2001, published 2004).

How the values were obtained:
Src = Src (Homo sapiens, UniProt P12931); test: cell-based
Protocol: The medium was changed to a serum-free medium and the cells were further incubated for one day. […] The culture medium was removed 5 min later and SDS sample buffer was added to give a cell lysate (200 μL).

[1] = test system: HER2 high expression human breast cancer cells BT-474; details: BT-474, 1 μmol/L, 5 days
Protocol: After the culture, the culture medium was removed and a cell suspension was prepared by a trypsin treatment and the cells were fixed with 70% ethanol. The DNA of the cells was stained with propidium iodide and the DNA amount was measured by a flow cytometer. The cells with a decreased amount of DNA are apoptotic (cell death) cells.

HER2 [2] = target: T1, HER2 (Homo sapiens, UniProt P04626); test: in vivo
Protocol: Four hours later, the tumor was sampled and a tumor homogenate was prepared.

[3] = test system: HER2 high expression human breast cancer cell BT-474; test: Anti-tumor effect, combined use, BT-474 cancer-bearing nude mice; assay type: in vivo; details: BT-474 nude mice, 5 cases out of 5, same regimens as T/C
Protocol: An increase in the tumor volume from that before administration to that on the next day of the final administration was compared to that of the control group and anti-tumor effect was studied. In addition, the tumor volume was calculated from the following equation:
Formula: Tumor volume=longer diameter×shorter diameter×shorter diameter×(½)
The ratio of the value obtained by subtracting the tumor volume on the day of administration initiation from the tumor volume on the next day of the completion of the administration in the control group, and the value obtained by subtracting the tumor volume on the day of administration initiation from the tumor volume on the next day of the completion of the administration was determined as a growth rate (T/C (%)).

786-O = test: cells; details: Homo sapiens, 786-0, read-out: Compound B4 IC50 (μmol/L), 786-O
Protocol: (§1) 1) Cell growth inhibitory action; Each cell line was sown in a 24-well multi-well plate (5×10^4 to 2×10^5 cells/well) and cultured overnight in a carbon dioxide gas incubator (5% CO2, 37° C. ).

A549 = test: cells; details: Homo sapiens, A549, read-out: Compound B4 IC50 (μmol/L), A549
Protocol: as §1

ACHN = test: cells; details: Homo sapiens, read-out: Compound B4 IC50 (μmol/L), ACHN
Protocol: as §1

BT-474 = test: cells; details: Homo sapiens, BT-474, read-out: Compound B4 IC50 (μmol/L), BT-474
Protocol: as §1

BxPC-3 = test: cells; details: Homo sapiens, BXPC-3, read-out: Compound B4 IC50 (μmol/L), BxPC-3
Protocol: as §1

ES-2 = test: cells; details: Homo sapiens, ES-2, read-out: Compound B4 IC50 (μmol/L), ES-2
Protocol: as §1

G401 = test: cells; details: Homo sapiens, G-401, read-out: Compound B4 IC50 (μmol/L), G401
Protocol: as §1

HCT-116 = test: cells; details: Homo sapiens, HCT-116, read-out: Compound B4 IC50 (μmol/L), HCT-116
Protocol: as §1

MDA-MB-231 [4] = test: cells; details: Homo sapiens, MDA-MB-231, read-out: Compound B4 IC50 (μmol/L), MDA-MB-231
Protocol: as §1

MIA-PaCa-2 = test: cells; details: Homo sapiens, MIA PaCa-2, read-out: Compound B4 IC50 (μmol/L), MIA-PaCa-2
Protocol: as §1

Ma-1 = test: cells; details: read-out: Compound B4 IC50 (μmol/L), Ma-1
Protocol: as §1

NIH: OV-CAR-3 = test: cells; details: Homo sapiens, OVCAR-3, read-out: Compound B4 IC50 (μmol/L), NIH: OV-CAR-3
Protocol: as §1

PA-1 = test: cells; details: Homo sapiens, PA-1, read-out: Compound B4 IC50 (μmol/L), PA-1
Protocol: as §1

SW480 = test: cells; details: Homo sapiens, SW480, read-out: Compound B4 IC50 (μmol/L), SW480
Protocol: as §1

[5] = test system: HER2 high expression human breast cancer cells BT-474; details: HER2 score 3+, dose 20 mg/kg/day orally for 14 days
Protocol: Immediately after transplantation and day 7 after the transplantation, estradiol dipropionate (5 mg/kg solution, 50 μL) was intramuscularly administered to the hind leg with the aim of enhancing the survival rate of the tumor. HER2 expression human non-parvicellular lung cancer A549 cells were suspended in Matrigel solution and 5,000,000 cells were subcutaneously transplanted into the chest of female BALB/c nude mouse (6 weeks of age). HER2 expression human kidney cancer ACHN cells (2,000,000 cells) were subcutaneously transplanted into the chest of nude mouse. […]
(§2) An increase in the tumor volume from that before administration to that on the next day of the final administration was compared to that of the control group and an anti-tumor effect was studied. In addition, the tumor volume was calculated from the following equation: […]
(§3) A ratio of the value obtained by subtracting a tumor volume on the day of the administration initiation from the tumor volume on the next day of the completion of the administration in the control group, and the value obtained by subtracting the tumor volume on the day of the administration initiation from the tumor volume on the next day of the completion of the administration was determined as a growth rate (T/C (%)).

MDA-MB-231 [6] = details: breast, HER2 score 0, dose 20 mg/kg/day orally for 14 days
Protocol: as §2, §3

[7] = test system: HER2 expression cells (Ma-46); details: 3 days, cell count
Protocol: (§4) 1) Cell growth inhibitory action; Each cell line was sown in a 24-well multi-well plate (5×10^4 cells/well) and cultured overnight in a carbon dioxide gas incubator (5% CO2, 37° C. ).

[8] = test system: HER2 non-expression cells (Ma-1); details: 3 days, cell count
Protocol: as §4

[9] = test system: HER2/EGF-R co-expression cells (A549); details: 3 days, cell count
Protocol: as §4

HER2 [10] = target: T1, HER2; test: cell-based

T1 sequence (P04626 23-1255): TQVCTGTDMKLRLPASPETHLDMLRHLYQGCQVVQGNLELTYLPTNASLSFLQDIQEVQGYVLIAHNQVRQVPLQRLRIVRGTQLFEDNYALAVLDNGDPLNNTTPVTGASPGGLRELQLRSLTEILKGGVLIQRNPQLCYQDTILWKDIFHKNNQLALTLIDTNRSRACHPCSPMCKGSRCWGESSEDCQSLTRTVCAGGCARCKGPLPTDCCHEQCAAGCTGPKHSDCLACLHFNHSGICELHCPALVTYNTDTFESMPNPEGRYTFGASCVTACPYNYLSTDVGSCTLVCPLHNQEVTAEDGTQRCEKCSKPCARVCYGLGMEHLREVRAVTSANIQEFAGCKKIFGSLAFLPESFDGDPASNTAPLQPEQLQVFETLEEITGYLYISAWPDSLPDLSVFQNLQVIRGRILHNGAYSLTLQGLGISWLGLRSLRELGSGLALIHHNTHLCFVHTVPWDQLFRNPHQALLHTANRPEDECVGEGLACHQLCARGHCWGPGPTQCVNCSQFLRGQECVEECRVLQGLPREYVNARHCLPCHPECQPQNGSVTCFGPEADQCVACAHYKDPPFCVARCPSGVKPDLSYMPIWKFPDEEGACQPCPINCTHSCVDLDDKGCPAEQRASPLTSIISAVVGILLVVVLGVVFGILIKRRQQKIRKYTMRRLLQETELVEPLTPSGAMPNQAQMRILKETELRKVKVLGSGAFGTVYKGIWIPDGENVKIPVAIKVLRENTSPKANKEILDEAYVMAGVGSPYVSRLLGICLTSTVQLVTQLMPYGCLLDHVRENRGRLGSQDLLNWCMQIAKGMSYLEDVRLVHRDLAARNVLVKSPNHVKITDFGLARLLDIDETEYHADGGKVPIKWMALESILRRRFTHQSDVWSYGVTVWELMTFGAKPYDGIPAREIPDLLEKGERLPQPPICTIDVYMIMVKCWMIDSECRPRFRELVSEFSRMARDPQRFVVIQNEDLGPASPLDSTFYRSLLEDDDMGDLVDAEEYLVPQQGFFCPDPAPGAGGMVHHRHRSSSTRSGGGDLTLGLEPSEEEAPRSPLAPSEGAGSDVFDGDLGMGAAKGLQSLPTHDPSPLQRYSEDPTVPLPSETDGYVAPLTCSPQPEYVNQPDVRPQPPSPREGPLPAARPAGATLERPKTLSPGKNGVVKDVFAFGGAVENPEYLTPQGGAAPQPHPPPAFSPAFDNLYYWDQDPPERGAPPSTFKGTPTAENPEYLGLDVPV
Sequence of Src (P12931 2-536 limits assumed): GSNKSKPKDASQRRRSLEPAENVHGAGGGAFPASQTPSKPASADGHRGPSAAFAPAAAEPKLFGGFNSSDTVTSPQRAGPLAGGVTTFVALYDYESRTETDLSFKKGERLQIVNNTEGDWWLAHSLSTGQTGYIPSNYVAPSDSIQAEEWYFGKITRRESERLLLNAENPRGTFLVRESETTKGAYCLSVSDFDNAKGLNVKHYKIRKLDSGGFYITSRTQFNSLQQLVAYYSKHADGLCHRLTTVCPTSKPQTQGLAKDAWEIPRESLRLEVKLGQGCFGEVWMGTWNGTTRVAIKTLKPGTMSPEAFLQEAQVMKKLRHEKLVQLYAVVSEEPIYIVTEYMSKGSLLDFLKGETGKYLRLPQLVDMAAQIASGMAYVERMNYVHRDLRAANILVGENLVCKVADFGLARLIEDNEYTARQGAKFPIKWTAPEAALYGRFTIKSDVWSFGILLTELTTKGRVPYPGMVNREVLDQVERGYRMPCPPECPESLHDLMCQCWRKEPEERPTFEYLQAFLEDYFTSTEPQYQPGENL

`FC(F)(F)c1ccc(/C=C/c2nc(COc3ccc(CCCCn4ccnn4)cc3)co2)cc1` [Compound B4, 1-(4-{4-[(2-{(E)-2-[4-(trifluoromethyl)phenyl]ethenyl}-1,3-oxazol-4-yl)methoxy]phenyl}butyl)-1H-1,2,3-triazole] was tested, and the IC50 (Src) was over 25000 nM, the cell death induction [1] was “induced cell death” and the inhibition at 20 mg/kg (HER2 [2]; BT-474, mouse, po, read-out: intra-tumor HER2 phosphorylation, % inhibition) was 87%. For the same molecule, the “intra-tumor HER2 phosphorylation (per tumor weight), % of the control group” value (HER2 [2]; BT-474 nude mice, 20 mg/kg/day orally 14 days then 10 mg/kg, tumor sampled four hours later) was 13%, the “reduction of tumor volume” value [3] was 13-30% and the IC50 (786-O) was over 25 µmol/L. It also gave an IC50 (A549) of 0.008 µmol/L, an IC50 (ACHN) of 0.14 µmol/L and an IC50 (BT-474) of 0.05 µmol/L. For the same molecule, the IC50 (BxPC-3) was over 25 µmol/L, the IC50 (ES-2) was 12 µmol/L and the IC50 (G401) was under 0.05 µmol/L. For the same molecule, the IC50 (HCT-116) was under 0.05 µmol/L, the IC50 (MDA-MB-231 [4]) was over 25 µmol/L and the IC50 (MIA-PaCa-2) was 0.02 µmol/L. It also gave an IC50 (Ma-1) of over 25 µmol/L, an IC50 (NIH: OV-CAR-3) of 0.06 µmol/L and an IC50 (PA-1) of under 0.05 µmol/L. The IC50 (SW480) was over 25 µmol/L, the “T/C (%), BT-474” value [5] was −18% and the “T/C (%), MDA-MB-231” value (MDA-MB-231 [6]) was 87%. The “cell growth inhibitory action on Ma-46” value [7] was “strong cell growth inhibitory action”, the “cell growth inhibitory action on Ma-1” value [8] was “did not show a cell growth inhibitory action” and the “cell growth inhibitory action on A549” value [9] was “strong cell growth inhibitory action”. For the same molecule, the IC50 (HER2 [10]) was 4 nM.
